For experiment [1], the target named is FGR (Homo sapiens, UniProt P09769). The settings on record: 0.1 µM; binder.
Experiment [2] has as its target SGK3 (Homo sapiens, UniProt Q96BR1). Conditions: 0.1 µM; binder.
Experiment [3] deals with CDK3 (Homo sapiens, UniProt Q00526). Conditions: 0.1 µM; binder.
The target of experiment [4] is BTK (Homo sapiens, UniProt Q06187). The settings on record: 0.1 µM; binder.
Experiment [5] addresses NDR1 (Homo sapiens, UniProt Q15208). Conditions: 0.1 µM; binder.
Experiment [6] concerns the target RAF1 (Homo sapiens, UniProt P04049). The settings on record: 0.1 µM; binder.
The target in experiment [7] is MEK5 (Homo sapiens, UniProt Q13163). The settings on record: 0.1 µM; binder.
Chain of MEK5 (Q13163 whole entry): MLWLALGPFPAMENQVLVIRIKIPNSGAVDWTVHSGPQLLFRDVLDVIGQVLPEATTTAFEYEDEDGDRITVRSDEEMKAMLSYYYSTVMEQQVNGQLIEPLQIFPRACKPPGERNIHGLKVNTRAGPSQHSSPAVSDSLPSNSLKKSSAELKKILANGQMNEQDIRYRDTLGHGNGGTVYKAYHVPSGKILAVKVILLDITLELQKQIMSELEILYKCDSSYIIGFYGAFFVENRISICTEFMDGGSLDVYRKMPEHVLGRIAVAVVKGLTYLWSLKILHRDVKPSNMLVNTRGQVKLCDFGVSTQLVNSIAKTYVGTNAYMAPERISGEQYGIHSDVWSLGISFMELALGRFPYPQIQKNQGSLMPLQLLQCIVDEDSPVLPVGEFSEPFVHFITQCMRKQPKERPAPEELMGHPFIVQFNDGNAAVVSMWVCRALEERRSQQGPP
The target in experiment [8] is AKT1 (Homo sapiens, UniProt P31749). Conditions: 0.1 µM; binder.
For experiment [9], the target named is T1, FLT3 (Homo sapiens, UniProt P36888).
T1 sequence (P36888 1-993): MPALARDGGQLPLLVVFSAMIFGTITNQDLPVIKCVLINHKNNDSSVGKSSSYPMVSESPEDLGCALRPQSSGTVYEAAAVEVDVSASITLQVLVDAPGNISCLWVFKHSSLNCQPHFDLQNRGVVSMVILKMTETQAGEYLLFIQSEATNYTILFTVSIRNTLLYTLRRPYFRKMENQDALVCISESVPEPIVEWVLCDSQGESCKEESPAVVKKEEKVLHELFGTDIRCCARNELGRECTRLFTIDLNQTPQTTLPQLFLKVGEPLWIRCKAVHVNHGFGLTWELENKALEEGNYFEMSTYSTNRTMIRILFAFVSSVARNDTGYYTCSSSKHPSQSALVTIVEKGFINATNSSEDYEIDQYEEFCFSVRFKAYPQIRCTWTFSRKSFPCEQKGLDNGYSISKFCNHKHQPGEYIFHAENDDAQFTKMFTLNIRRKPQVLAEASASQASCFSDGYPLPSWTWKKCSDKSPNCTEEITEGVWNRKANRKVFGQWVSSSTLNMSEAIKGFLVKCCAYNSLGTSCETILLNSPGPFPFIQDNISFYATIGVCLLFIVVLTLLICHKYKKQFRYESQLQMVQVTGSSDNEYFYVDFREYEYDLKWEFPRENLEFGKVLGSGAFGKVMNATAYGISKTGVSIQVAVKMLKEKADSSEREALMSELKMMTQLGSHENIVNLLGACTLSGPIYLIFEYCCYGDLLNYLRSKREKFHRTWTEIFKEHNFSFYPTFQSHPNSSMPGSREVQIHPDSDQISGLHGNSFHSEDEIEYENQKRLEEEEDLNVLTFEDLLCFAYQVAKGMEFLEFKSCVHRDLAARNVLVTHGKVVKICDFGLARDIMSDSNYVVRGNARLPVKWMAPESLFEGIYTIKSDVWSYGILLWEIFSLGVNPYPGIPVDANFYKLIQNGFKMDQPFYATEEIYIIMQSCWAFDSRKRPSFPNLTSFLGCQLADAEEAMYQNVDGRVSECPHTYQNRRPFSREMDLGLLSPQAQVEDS
Conditions: 0.1 µM, binder.

Experiment [10] addresses CHEK1 (Homo sapiens, UniProt O14757). Conditions: 0.1 µM; binder.
Experiment [11] addresses WNK3 (Homo sapiens, UniProt Q9BYP7). The settings on record: 0.1 µM; binder.
In experiment [12] the target is NEK9 (Homo sapiens, UniProt Q8TD19). The settings on record: 0.1 µM; binder.
For experiment [13], the target named is JNK3 (Homo sapiens, UniProt P53779). The settings on record: 0.1 µM; binder.
Experiment [14] addresses IKK-alpha (Homo sapiens, UniProt O15111). Conditions: 0.1 µM; binder.
The target in experiment [15] is CSNK2A1 (Homo sapiens, UniProt P68400). Conditions: 0.1 µM; binder.
The target in experiment [16] is DAPK2 (Homo sapiens, UniProt Q9UIK4). Conditions: 0.1 µM; binder.
Chain of DAPK2 (Q9UIK4 whole entry): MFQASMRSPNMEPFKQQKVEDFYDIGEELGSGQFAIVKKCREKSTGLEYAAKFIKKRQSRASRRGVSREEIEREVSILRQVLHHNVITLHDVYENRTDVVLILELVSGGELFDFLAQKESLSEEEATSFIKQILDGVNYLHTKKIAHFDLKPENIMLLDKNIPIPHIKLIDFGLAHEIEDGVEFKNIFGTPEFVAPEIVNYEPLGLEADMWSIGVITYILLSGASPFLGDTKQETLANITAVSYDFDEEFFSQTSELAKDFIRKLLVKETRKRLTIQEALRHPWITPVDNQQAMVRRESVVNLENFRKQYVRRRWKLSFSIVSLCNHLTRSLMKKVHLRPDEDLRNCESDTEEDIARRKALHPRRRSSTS
Experiment [17] deals with FGFR2 (Homo sapiens, UniProt P21802). Conditions: 0.1 µM; binder.
Chain of FGFR2 (P21802 whole entry): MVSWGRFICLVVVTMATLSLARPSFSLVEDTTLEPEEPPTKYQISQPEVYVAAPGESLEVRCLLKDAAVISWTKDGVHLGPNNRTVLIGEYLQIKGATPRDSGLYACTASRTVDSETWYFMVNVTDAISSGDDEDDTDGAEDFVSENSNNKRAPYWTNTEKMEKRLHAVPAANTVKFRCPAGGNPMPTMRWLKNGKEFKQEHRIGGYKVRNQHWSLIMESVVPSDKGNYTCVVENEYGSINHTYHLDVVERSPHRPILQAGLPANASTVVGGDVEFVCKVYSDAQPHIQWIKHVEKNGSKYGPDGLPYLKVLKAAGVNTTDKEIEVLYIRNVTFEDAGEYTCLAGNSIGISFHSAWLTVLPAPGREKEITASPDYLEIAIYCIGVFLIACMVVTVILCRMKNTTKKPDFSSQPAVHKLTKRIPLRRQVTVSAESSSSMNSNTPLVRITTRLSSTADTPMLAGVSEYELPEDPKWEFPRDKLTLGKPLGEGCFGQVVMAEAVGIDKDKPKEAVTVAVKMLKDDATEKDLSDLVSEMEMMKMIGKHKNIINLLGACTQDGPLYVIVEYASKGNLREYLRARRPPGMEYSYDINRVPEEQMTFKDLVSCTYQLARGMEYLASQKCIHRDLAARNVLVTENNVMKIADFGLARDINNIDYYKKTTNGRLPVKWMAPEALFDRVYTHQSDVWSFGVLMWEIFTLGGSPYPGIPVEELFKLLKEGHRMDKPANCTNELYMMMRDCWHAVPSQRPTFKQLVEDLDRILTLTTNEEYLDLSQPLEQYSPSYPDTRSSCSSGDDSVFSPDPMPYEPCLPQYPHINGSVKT
Experiment [18] has as its target LCK (Homo sapiens, UniProt P06239). The settings on record: 0.1 µM; binder.
Experiment [19] has as its target YSK1 (Homo sapiens, UniProt O00506). The settings on record: 0.1 µM; binder.
In experiment [20] the target is MST2 (Homo sapiens, UniProt Q13188). The settings on record: 0.1 µM; binder.
Experiment [21] has as its target EPHB2 (Homo sapiens, UniProt P29323). The settings on record: 0.1 µM; binder.
The target in experiment [22] is LYN (Homo sapiens, UniProt P07948). The settings on record: 0.1 µM; binder.

Read-outs that look alike come from different tables or passages of the source.

Chain of RAF1 (P04049 whole entry): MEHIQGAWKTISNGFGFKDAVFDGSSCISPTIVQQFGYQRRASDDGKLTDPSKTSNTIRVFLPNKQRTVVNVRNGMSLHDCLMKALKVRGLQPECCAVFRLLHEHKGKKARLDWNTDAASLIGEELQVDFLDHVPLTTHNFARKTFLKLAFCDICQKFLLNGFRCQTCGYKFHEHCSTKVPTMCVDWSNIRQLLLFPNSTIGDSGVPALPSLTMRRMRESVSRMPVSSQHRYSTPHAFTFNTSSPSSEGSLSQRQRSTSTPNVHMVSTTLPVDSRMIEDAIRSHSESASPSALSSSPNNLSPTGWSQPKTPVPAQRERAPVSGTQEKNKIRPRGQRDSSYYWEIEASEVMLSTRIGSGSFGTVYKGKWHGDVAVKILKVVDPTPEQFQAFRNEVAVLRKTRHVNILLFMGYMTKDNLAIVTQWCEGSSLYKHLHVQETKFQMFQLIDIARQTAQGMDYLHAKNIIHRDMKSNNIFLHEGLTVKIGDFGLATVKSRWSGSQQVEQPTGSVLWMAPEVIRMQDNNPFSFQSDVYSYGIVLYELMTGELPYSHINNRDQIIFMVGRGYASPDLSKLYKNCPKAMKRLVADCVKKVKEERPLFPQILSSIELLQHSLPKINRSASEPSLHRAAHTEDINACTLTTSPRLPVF
Chain of FGR (P09769 whole entry): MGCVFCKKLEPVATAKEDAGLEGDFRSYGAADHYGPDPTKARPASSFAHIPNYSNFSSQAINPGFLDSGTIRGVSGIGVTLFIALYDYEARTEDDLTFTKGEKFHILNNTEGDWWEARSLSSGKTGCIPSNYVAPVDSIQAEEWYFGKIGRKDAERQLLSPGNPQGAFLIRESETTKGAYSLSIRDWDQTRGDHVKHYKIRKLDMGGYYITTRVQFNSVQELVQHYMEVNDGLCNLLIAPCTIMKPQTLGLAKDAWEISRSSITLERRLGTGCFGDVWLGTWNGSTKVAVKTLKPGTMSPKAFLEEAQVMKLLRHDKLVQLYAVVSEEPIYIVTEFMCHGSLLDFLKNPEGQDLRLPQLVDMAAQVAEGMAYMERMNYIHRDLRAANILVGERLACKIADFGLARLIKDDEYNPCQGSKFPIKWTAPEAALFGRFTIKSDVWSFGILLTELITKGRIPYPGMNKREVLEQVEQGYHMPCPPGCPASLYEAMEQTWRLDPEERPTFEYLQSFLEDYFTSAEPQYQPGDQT
Chain of BTK (Q06187 whole entry): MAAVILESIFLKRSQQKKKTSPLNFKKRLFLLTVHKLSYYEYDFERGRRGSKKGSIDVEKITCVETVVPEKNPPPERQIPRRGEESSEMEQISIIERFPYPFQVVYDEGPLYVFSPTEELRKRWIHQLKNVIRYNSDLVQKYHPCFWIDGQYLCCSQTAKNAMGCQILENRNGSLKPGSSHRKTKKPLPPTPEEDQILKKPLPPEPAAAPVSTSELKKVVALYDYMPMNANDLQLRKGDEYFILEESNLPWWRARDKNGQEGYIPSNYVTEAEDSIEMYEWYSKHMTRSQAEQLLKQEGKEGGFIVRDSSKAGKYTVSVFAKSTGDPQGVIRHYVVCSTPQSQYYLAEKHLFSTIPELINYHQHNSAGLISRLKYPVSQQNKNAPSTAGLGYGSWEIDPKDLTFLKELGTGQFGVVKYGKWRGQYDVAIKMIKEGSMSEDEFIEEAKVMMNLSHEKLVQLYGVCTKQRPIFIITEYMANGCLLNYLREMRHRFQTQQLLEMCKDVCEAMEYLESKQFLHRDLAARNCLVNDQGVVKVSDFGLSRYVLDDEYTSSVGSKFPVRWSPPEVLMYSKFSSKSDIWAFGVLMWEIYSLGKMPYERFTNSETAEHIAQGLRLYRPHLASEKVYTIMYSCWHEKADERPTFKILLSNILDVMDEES
Chain of LCK (P06239 whole entry): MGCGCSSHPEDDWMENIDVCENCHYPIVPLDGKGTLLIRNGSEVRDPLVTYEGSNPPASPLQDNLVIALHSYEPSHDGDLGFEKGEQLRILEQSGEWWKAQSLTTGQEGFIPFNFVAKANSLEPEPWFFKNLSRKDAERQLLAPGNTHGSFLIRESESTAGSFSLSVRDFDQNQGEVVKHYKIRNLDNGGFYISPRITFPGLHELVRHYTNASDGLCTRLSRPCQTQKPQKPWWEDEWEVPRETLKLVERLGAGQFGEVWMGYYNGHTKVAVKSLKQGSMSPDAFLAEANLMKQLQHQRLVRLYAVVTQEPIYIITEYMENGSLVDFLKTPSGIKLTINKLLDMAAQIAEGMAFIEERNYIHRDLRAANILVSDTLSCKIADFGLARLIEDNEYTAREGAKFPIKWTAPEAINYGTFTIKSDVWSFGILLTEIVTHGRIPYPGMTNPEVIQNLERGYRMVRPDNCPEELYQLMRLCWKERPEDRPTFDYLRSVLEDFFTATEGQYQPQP
Chain of SGK3 (Q96BR1 whole entry): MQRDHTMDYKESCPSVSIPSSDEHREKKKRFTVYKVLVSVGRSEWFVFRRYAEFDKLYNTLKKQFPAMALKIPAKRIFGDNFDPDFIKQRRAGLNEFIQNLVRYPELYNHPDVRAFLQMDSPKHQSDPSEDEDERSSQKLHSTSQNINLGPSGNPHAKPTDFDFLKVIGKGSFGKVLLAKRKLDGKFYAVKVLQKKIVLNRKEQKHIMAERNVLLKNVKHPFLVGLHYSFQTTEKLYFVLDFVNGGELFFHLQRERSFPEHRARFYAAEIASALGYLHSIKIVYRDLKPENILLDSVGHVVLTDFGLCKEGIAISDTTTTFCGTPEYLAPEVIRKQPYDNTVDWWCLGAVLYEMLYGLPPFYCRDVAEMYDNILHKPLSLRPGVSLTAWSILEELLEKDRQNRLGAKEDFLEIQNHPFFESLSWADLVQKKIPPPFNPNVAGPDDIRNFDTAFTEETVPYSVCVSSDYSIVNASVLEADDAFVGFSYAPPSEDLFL
Chain of CHEK1 (O14757 whole entry): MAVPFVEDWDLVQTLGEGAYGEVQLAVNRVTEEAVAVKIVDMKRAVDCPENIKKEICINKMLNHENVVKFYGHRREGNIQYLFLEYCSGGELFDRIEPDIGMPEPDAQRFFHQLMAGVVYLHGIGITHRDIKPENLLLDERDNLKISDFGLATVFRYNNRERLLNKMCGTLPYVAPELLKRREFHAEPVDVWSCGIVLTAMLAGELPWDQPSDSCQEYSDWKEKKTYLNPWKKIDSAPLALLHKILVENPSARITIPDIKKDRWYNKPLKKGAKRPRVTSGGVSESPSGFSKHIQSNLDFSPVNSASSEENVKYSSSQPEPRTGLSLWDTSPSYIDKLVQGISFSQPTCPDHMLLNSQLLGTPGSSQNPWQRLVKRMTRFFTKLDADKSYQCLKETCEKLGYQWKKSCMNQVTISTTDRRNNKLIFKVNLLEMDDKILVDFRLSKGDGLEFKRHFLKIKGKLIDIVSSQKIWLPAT

On to `CNc1ncc2cc(-c3ccc(-c4cccc(C)n4)cc3Cl)c(=O)n(C[C@H]3OC[C@H](N)CO3)c2n1` [compound 6, G-5555], for which the “Percent Control” value in [1] is reported as 100%; in [2] it was 93%; in experiment [3] it was 100%; in experiment [4], 87%; in [5] it was 97%; in experiment [6], 100%. Also, the “Percent Control” value in experiment [7] is on record as 13%; in [8] it was 100%; in experiment [9], 100%; in experiment [9] (autoinhibited) it was 94%; in [10], 100%; in experiment [11] it was 100%. The “Percent Control” value in [12] was 100%; in experiment [13], 92%; in experiment [14], 92%; in experiment [15], 88%; in [16], 100%; in [17] it was 100%. Also, the “Percent Control” value in [18] came out at 58%; in [19], 40%; in [20] it was 64%; in experiment [21], 100%; in experiment [22] it was 100%.

Source of the values: article doi:10.1101/2021.04.08.439011v1 (biorxiv, 2021).
